Laboratory results as given in patent publication US20260242419A1, “A CYCLIC PEPTIDE FOR TRAPPING INTERLEUKIN-1 BETA” (Merck Sharp & Dohme LLC, priority 2023, published 2026).
Starred links: 1 amine or outer side, 2 acyl side, 3 side chain; linkers in the order of their positions; H or OH if unused. Non-standard residues stand in square brackets, D forms with d. Residues, ends and D or L forms follow the SMILES beside them. Phe(4-(trans-4-COOH-cHex)) = N[C@@H](Cc1ccc([C@H]2CC[C@H](C(=O)O)CC2)cc1)C(=O)O; Phe(4-(5-CO2H-2-pyrimidyl)) = N[C@@H](Cc1ccc(-c2ncc(C(=O)O)cn2)cc1)C(=O)O; dPro(4R-(4-pyridylmethyl)) = O=C(O)[C@H]1C[C@@H](Cc2ccncc2)CN1; Benzoyl(4-piperazinyl) = O=C(c1ccc(N2CCN([*:1])CC2)cc1)[*:2]; Trp(βS-Me,4-F) = C[C@@H](c1c[nH]c2cccc(F)c12)[C@H](N)C(=O)O; Bip(4'-COOH) = N[C@@H](Cc1ccc(-c2ccc(C(=O)O)cc2)cc1)C(=O)O; Ala(1-bicyclo(1.1.1)pentyl) = N[C@@H](CC12CC(C1)C2)C(=O)O; dPro(4R-Bzl(4-F)) = O=C(O)[C@H]1C[C@@H](Cc2ccc(F)cc2)CN1; dPro(3S-(4-F-Bn)) = O=C(O)[C@@H]1NCC[C@@H]1Cc1ccc(F)cc1; Ala(pyrimidin-5-yl) = N[C@@H](Cc1cncnc1)C(=O)O; Phe(4-COOH) = N[C@@H](Cc1ccc(C(=O)O)cc1)C(=O)O; Pro(cis-4-F) = O=C(O)[C@@H]1C[C@H](F)CN1; Ala(4-THP) = N[C@@H](CC1CCOCC1)C(=O)O; Met(O2) = CS(=O)(=O)CC[C@H](N)C(=O)O; AEF = NCCOc1ccc(C[C@H](N)C(=O)O)cc1; d(αMeD) = C[C@@](N)(CC(=O)O)C(=O)O; 4Pal = N[C@@H](Cc1ccncc1)C(=O)O; aThr = C[C@H](O)[C@H](N)C(=O)O; αMeD = C[C@](N)(CC(=O)O)C(=O)O; αMeK = C[C@](N)(CCCCN)C(=O)O; Dab = NCC[C@H](N)C(=O)O; Aib = CC(C)(N)C(=O)O

biological target: T1, IL-1β (Homo sapiens, UniProt P01584); assay: IL-6 assay in MRC5 cells: inhibition of IL-1β induced IL-6 secretion (AlphaLISA); type: cell-based; conditions: inhibition of IL-1β induced IL-6 secretion in MRC5 cells; compound pre-incubated 1 hour with recombinant human IL-1β; read-out: MRC5 IC50
T1 construct: purchased BioLegend 579404
Method: Procedure for IL-6 Assay in MRC5 Cells
The inhibition of IL-1β induced IL-6 secretion was evaluated in MRC5 cells. Recombinant human IL-1β (BioLegend 579404) at 2λ EC80 concentration was prepared in seeding medium. EMEM (ATCC 30-2003) with 0.025% BSA (Sigma A9576), 1×penicillin/streptomycin (Gibco 15070-063), 1×NEAA (Gibco 11140-050), 1×GlutaMax (Gibco 35050-061), and 1×sodium pyruvate (Gibco 11360-070), 20 μL of IL-1β was added to a 384-well collagen-coated plate (Corning 354664) and pre-incubated at ambient temperature for 1 hour with 200 nL of compound dispensed using an ECHO 555 liquid handler. Human lung fibroblast MRC5 cells (ATCC CCL-171) were added at a density of 3000 cells/20 μL per well. The cells were prepared by passaging three times in growth medium, EMEM (ATCC 30-2003) with 10% fetal bovine serum (Gibco 16140-071), 1×penicillin/streptomycin (Gibco 15070-063), 1×NEAA (Gibco 11140-050), 1×GlutaMax (Gibco 35050-061), and 1×sodium pyruvate (Gibco 11360-070) in collagen-coated T175 flasks (Greiner 661950) and harvested in seeding medium after 5 minutes of 0.25% trypsin-EDTA (Gibco 25200-056) digestion. The 384-well collagen-coated plate, containing a final volume of 40 μL, was incubated at 37° C., 5% CO2 overnight. 5 μL of the conditioned medium was transferred to a 384-well AlphaLISA plate (PerkinElmer 6005350) for detection of IL-6 using the human AlphaLISA IL-6 kit (PerkinElmer AL223F) as per the manufacturer's protocol. 20 μL of the acceptor bead/biotinylated antibody mix was added to the 384-well AlphaLISA plate and incubated for 1 hour at ambient temperature. The donor bead mix was protected from light and 25 μL was added to the plate and incubated for 30 minutes at ambient temperature. The AlphaLISA plate was read on an EnVision multimode plate reader (Perkin Elmer model 2104) using the AlphaScreen setting (laser exc at 680 nm and emis at […]). Dose response curves and IC50 values were analyzed using a 4-parameter logistic equation in Spotfire software (Tibco, Palo Alto, CA).

T1 sequence (P01584 117-269): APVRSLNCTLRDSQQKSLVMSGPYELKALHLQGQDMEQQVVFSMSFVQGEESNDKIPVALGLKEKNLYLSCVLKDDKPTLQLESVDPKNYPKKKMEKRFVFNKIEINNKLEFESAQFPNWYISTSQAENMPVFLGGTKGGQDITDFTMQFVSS

| IC50 [nM] | SMILES |
| --- | --- |
| 0.019 | C[C@@H](c1c[nH]c2cccc(F)c12)[C@@H]1NC(=O)[C@@H]2C[C@H](F)CN2C(=O)CNC(=O)[C@H](Cc2ccc(C(=O)O)cc2)NC(=O)[C@H](Cc2ccncc2)NC(=O)[C@H](Cc2ccc(-c3ccc(C(=O)O)cc3)cc2)NC(=O)[C@H]2C[C@@H](Cc3ccncc3)CN2C(=O)CNC(=O)[C@H](CCN)NC(=O)[C@H](CCC(N)=O)NC(=O)[C@H](CCS(C)(=O)=O)NC(=O)C(C)(C)NC(=O)[C@H](Cc2c[nH]c3ccccc23)NC(=O)[C@H](CO)NC(=O)C(C)(C)NC1=O [Example 266] (cyclo([Bip(4'-COOH)][4Pal][Phe(4-COOH)]G[Pro(cis-4-F)][Trp(βS-Me,4-F)][Aib]SW[Aib][Met(O2)]Q[Dab]G[dPro(4R-(4-pyridylmethyl))])) |
| 0.013 | CO[C@@H](C)[C@@H]1NC(=O)[C@@](C)(CC(=O)O)NC(=O)[C@H](Cc2c[nH]c3ccccc23)NC(=O)[C@H](CO)NC(=O)C(C)(C)NC(=O)[C@H]([C@@H](C)c2c[nH]c3cccc(F)c23)NC(=O)[C@@H]2C[C@H](F)CN2C(=O)CNC(=O)[C@H](Cc2ccc(C(=O)O)cc2)NC(=O)[C@H](Cc2ccncc2)NC(=O)[C@H](Cc2ccc(-c3ccc(C(=O)O)cc3)cc2)NC(=O)[C@H]2C[C@@H](Cc3ccncc3)CN2C(=O)CNC(=O)[C@H](CCN)NC(=O)[C@H](CCC(N)=O)NC1=O [Example 254] (cyclo([Bip(4'-COOH)][4Pal][Phe(4-COOH)]G[Pro(cis-4-F)][Trp(βS-Me,4-F)][Aib]SW[d(αMeD)][aThr](Me)Q[Dab]G[dPro(4R-(4-pyridylmethyl))])) |

same assay, conditions: inhibition of IL-1β induced IL-6 secretion in MRC5 cells; read-out: MRC5 IC50

| IC50 [nM] | SMILES |
| --- | --- |
| 0.011 | C[C@@H](c1c[nH]c2cccc(F)c12)[C@@H]1NC(=O)[C@@H]2C[C@H](F)CN2C(=O)CNC(=O)[C@H](Cc2ccc(C(=O)O)cc2)NC(=O)[C@H](CC23CC(C2)C3)NC(=O)[C@H](Cc2ccc(-c3ccc(C(=O)O)cc3)cc2)NC(=O)[C@H]2C[C@@H](Cc3ccncc3)CN2C(=O)CNC(=O)[C@H](CCN)NC(=O)[C@H](CCC(N)=O)NC(=O)[C@H](Cc2cncnc2)NC(=O)[C@@](C)(CC(=O)O)NC(=O)[C@H](Cc2c[nH]c3ccccc23)NC(=O)[C@H](CO)NC(=O)C(C)(C)NC1=O [Example 155] (cyclo([Bip(4'-COOH)][Ala(1-bicyclo(1.1.1)pentyl)][Phe(4-COOH)]G[Pro(cis-4-F)][Trp(βS-Me,4-F)][Aib]SW[d(αMeD)][Ala(pyrimidin-5-yl)]Q[Dab]G[dPro(4R-(4-pyridylmethyl))])) |
| 0.021 | C[C@@H](c1c[nH]c2cccc(F)c12)[C@@H]1NC(=O)[C@@H]2C[C@H](F)CN2C(=O)CNC(=O)[C@H](Cc2ccc(C(=O)O)cc2)NC(=O)[C@H](Cc2ccncc2)NC(=O)[C@H](Cc2ccc(-c3ccc(C(=O)O)cc3)cc2)NC(=O)[C@H]2C[C@@H](Cc3ccc(F)cc3)CN2C(=O)CNC(=O)[C@H](CCN)NC(=O)[C@H](CCC(N)=O)NC(=O)[C@H](Cc2cncnc2)NC(=O)[C@](C)(CCCCN)NC(=O)[C@H](Cc2c[nH]c3ccccc23)NC(=O)[C@H](CCC(=O)O)NC(=O)C(C)(C)NC1=O [Example 67] (cyclo([4Pal][Phe(4-COOH)]G[Pro(cis-4-F)][Trp(βS-Me,4-F)][Aib]EW[αMeK][Ala(pyrimidin-5-yl)]Q[Dab]G[dPro(4R-Bzl(4-F))][Bip(4'-COOH)])) |
| 0.01 | C[C@@H](c1c[nH]c2cccc(F)c12)[C@@H]1NC(=O)[C@@H]2C[C@H](F)CN2C(=O)CNC(=O)[C@H](Cc2ccc(C(=O)O)cc2)NC(=O)[C@H](Cc2ccncc2)NC(=O)[C@H](Cc2ccc(-c3ccc(C(=O)O)cc3)cc2)NC(=O)[C@H]2[C@@H](Cc3ccc(F)cc3)CCN2C(=O)CNC(=O)[C@H](CCN)NC(=O)[C@H](CCC(N)=O)NC(=O)[C@H](Cc2cncnc2)NC(=O)C(C)(C)NC(=O)[C@H](Cc2c[nH]c3ccccc23)NC(=O)[C@H](CCC(=O)O)NC(=O)C(C)(C)NC1=O [Example 346] (cyclo([Bip(4'-COOH)][4Pal][Phe(4-COOH)]G[Pro(cis-4-F)][Trp(βS-Me,4-F)][Aib]EW[Aib][Ala(pyrimidin-5-yl)]Q[Dab]G[dPro(3S-(4-F-Bn))])) |
| 0.016 | C[C@@H](c1c[nH]c2cccc(F)c12)[C@@H]1NC(=O)[C@@H]2C[C@H](F)CN2C(=O)CNC(=O)[C@H](Cc2ccc(C(=O)O)cc2)NC(=O)[C@H](Cc2ccncc2)NC(=O)[C@H](Cc2ccc(-c3ncc(C(=O)O)cn3)cc2)NC(=O)[C@H]2C[C@@H](Cc3ccncc3)CN2C(=O)CNC(=O)[C@H](CCN)NC(=O)[C@H](CCC(N)=O)NC(=O)[C@H](CC2CCOCC2)NC(=O)[C@@](C)(CC(=O)O)NC(=O)[C@H](Cc2c[nH]c3ccccc23)NC(=O)[C@H](CO)NC(=O)C(C)(C)NC1=O [Example 351] (cyclo([Phe(4-(5-CO2H-2-pyrimidyl))][4Pal][Phe(4-COOH)]G[Pro(cis-4-F)][Trp(βS-Me,4-F)][Aib]SW[d(αMeD)][Ala(4-THP)]Q[Dab]G[dPro(4R-(4-pyridylmethyl))])) |
| 0.035 | C[C@@H](c1c[nH]c2cccc(F)c12)[C@@H]1NC(=O)[C@@H]2C[C@H](F)CN2C(=O)CNC(=O)[C@H](Cc2ccc(C(=O)O)cc2)NC(=O)[C@H](Cc2ccncc2)NC(=O)[C@H](Cc2ccc([C@H]3CC[C@H](C(=O)O)CC3)cc2)NC(=O)[C@H]2C[C@@H](Cc3ccc(F)cc3)CN2C(=O)CNC(=O)[C@H](CCN)NC(=O)[C@H](CCC(N)=O)NC(=O)[C@H](Cc2cncnc2)NC(=O)C(C)(C)NC(=O)[C@H](Cc2c[nH]c3ccccc23)NC(=O)[C@H](CCC(=O)O)NC(=O)C(C)(C)NC1=O [Example 114] (cyclo([Phe(4-(trans-4-COOH-cHex))][4Pal][Phe(4-COOH)]G[Pro(cis-4-F)][Trp(βS-Me,4-F)][Aib]EW[Aib][Ala(pyrimidin-5-yl)]Q[Dab]G[dPro(4R-Bzl(4-F))])) |
| 0.021 | CC(=O)NCCOc1ccc(C[C@@H]2NC(=O)[C@H]3[C@@H](Cc4ccc(F)cc4)CCN3C(=O)CNC(=O)[C@H](CCN)NC(=O)[C@H](CCC(N)=O)NC(=O)[C@H](Cc3cncnc3)NC(=O)[C@@](C)(CC(=O)O)NC(=O)[C@H](Cc3c[nH]c4ccccc34)NC(=O)[C@H](CO)NC(=O)C(C)(C)NC(=O)[C@H]([C@@H](C)c3c[nH]c4cccc(F)c34)NC(=O)[C@@H]3C[C@H](F)CN3C(=O)CNC(=O)[C@H](Cc3ccc(C(=O)O)cc3)NC(=O)[C@H](Cc3ccncc3)NC2=O)cc1 [Example 369] (cyclo([AEF](Ac)[4Pal][Phe(4-COOH)]G[Pro(cis-4-F)][Trp(βS-Me,4-F)][Aib]SW[d(αMeD)][Ala(pyrimidin-5-yl)]Q[Dab]G[dPro(3S-(4-F-Bn))])) |
| 0.02 | C[C@@H](c1c[nH]c2cccc(F)c12)[C@@H]1NC(=O)[C@@H]2C[C@H](F)CN2C(=O)CNC(=O)[C@H](Cc2ccc(C(=O)O)cc2)NC(=O)[C@H](Cc2ccncc2)NC(=O)[C@H](Cc2ccc(OCCNC(=O)c3ccc(N4CCNCC4)cc3)cc2)NC(=O)[C@H]2C[C@@H](Cc3ccncc3)CN2C(=O)CNC(=O)[C@H](CCN)NC(=O)[C@H](CCC(N)=O)NC(=O)[C@H](Cc2cncnc2)NC(=O)C(C)(C)NC(=O)[C@H](Cc2c[nH]c3ccccc23)NC(=O)[C@H](CO)NC(=O)C(C)(C)NC1=O [Example 306] (cyclo([AEF](Benzoyl(4-piperazinyl))[4Pal][Phe(4-COOH)]G[Pro(cis-4-F)][Trp(βS-Me,4-F)][Aib]SW[Aib][Ala(pyrimidin-5-yl)]Q[Dab]G[dPro(4R-(4-pyridylmethyl))])) |
| 0.02 | C[C@@H](c1c[nH]c2cccc(F)c12)[C@@H]1NC(=O)[C@@H]2C[C@H](F)CN2C(=O)CNC(=O)[C@H](Cc2ccc(C(=O)O)cc2)NC(=O)[C@H](CC23CC(C2)C3)NC(=O)[C@H](Cc2ccc(-c3ncc(C(=O)O)cn3)cc2)NC(=O)[C@H]2C[C@@H](Cc3ccncc3)CN2C(=O)CNC(=O)[C@H](CCN)NC(=O)[C@H](CCC(N)=O)NC(=O)[C@H](Cc2cncnc2)NC(=O)[C@](C)(CC(=O)O)NC(=O)[C@H](Cc2c[nH]c3ccccc23)NC(=O)[C@H](CO)NC(=O)C(C)(C)NC1=O [Example 188] (cyclo([Phe(4-(5-CO2H-2-pyrimidyl))][Ala(1-bicyclo(1.1.1)pentyl)][Phe(4-COOH)]G[Pro(cis-4-F)][Trp(βS-Me,4-F)][Aib]SW[αMeD][Ala(pyrimidin-5-yl)]Q[Dab]G[dPro(4R-(4-pyridylmethyl))])) |
